The values below come from US20200239530A1, “COMPOUNDS AND METHODS OF MODULATING PROTEIN DEGRADATION” (Vividion Therapeutics, Inc., priority 2017, published 2020).

Assay in all cases: Competitive cysteine profiling of cell lysate with desthiobiotin iodoacetamide probe (96-well sample prep)
Common to all, as to format: binding

Test [1] has as its system cysteine residue illustrated in Table 1A or Table 2A. Conditions: for KB02_100 uM_percent_inhibition: KB02 at 100 uM; for KB03_100 uM_percent_inhibition: KB03 at 100 uM. The method, then: (§1) In some embodiments, the solution sample (e.g., cell sample, cell lysate sample, or comprising isolated proteins) is incubated with a compound of Formula (I) for analysis of protein-probe interactions. In some instances, the solution sample (e.g., cell sample, cell lysate sample, or comprising isolated proteins) is further incubated in the presence of an additional compound probe prior to addition of the compound of Formula (I). […] In such instances, the solution sample is incubated with a probe and a ligand for competitive protein profiling analysis.
(§2) The following 96-well sample prep protocol was used for sample preparation.
(§3) Cells were resuspended in cold PBS on ice and sonicated with a probe sonicator to achieve lysis. 200 μL of lysate containing 5 mg/ml proteome was treated with 2 μL of 100× compound stock in a 2-mL deep-well plate. The treated lysate was subsequently incubate at 25° C. for 1 hr with shaking at 600 rpm. The treated lysate was further incubated with 2 μL of 10 mM desthiobiotin iodoacetamide probe at 25° C. for 1 hr with shaking at 600 rpm. Next, the lysate was further treat with 20 μL of solution of PBS containing 11 mM MgSO4 and 2.5% Turbonuclease stock and incubated at 25° C. for 20 minutes with shaking at 600 rpm. 1.7 mL ice-cold acetone was added to each well and incubated at −20° C. for 2 hr, followed by max speed (4200 rpm) spin for 45 min. Acetone was then decanted and the plates were blotted to remove acetone. The plates were then dried in open air for 20 minutes. After drying, the plates were then covered with foil seal and stored at −80° C. overnight.
(§4) The next day, samples were re-suspended in 90 μL of solution of 9M urea, 50 mM ammonium bicarbonate and 10 mM DTT by incubating at 65C for 20 min with shaking at 1500 rpm. Next, samples were cooled to 37° C. and then 10 μL of 500 mM iodoacetamide solution (92.48 mg/ml) was added. The samples were then incubated at 37° C. for 30 min with shaking at 600 rpm.
(§5) ZEBA desalting plates were equilibrated 4 times using 250 μL of 2M urea, 50 mM ammonium bicarbonate solution followed by centrifugation at 1500 rpm for 2 minutes. After equilibration was complete, samples were applied to ZEBA desalting plate and spin at 1500 rpm for 2 min on top of 1 mL 96-well deep-well collection plate to buffer exchange samples. 4 μL of solution containing 25 mM CaCl2 and 0.25 mg/mL trypsin was added to the plate and the plate was then incubated at 37° C. for 2 hrs with shaking at 600 rpm. 300 μL of solution containing 5% high-capacity streptavidin agarose slurry in 25 mM Tris-HCl pH 7.5, 150 mM NaCl, and 0.1% NP-40 then added. The plate was incubated at 25° C. for 2 hrs with shaking at 600 rpm. Samples were transferred to 25 μm filter plate and spin at 1000 rpm for 2 min. Samples were then washed 3 times with 0.75 mL of wash buffer (25 mM Tris-HCl pH 7.5, 150 mM NaCl, and 0.1% NP-40) followed by washing 3 times with 0.75 mL PBS, and then 4 times with 0.75 mL water. After the washing step, samples were eluted into polypropylene 96-well plate by addition of 250 µL of 50% MeCN/water, 0.1% formic acid and allowed to gravity drip for 10 min, followed by centrifugation at 1000 rpm for 2 min. Speedvac was used to dry the plates at about 45° C. for […]. Then the plates were covered with foil seal and stored at −20° C.
(§6) Samples were resuspended by addition of 20 μl of 12.5% ACN, 0.1% formic acid solution, covered with foil seal, and incubated at 42° C. for 10 minutes with shaking at 600 rpm. Then add 30 μL of 0.1% formic acid solution was added and the plate was covered and incubated at 42° C. for 10 minutes with shaking at 600 rpm. Seal plate was then sealed with a 96-well silicon mat for analysis.

Test [2] deals with T1, cysteine residue illustrated in Table 1A or Table 2A (Homo sapiens, UniProt Q86UW9).
T1 construct: Cells were resuspended in cold PBS on ice and sonicated with a probe sonicator to achieve lysis; endogenous in cells
To be noted: UniProt Q86UW9; 100 uM. The method, then:
as §1, §2, §3, §4, §5, §6

In test [3] the target is T2, cysteine residue illustrated in Table 1A or Table 2A (Homo sapiens, UniProt Q8WV16).
T2 construct: Cells were resuspended in cold PBS on ice and sonicated with a probe sonicator to achieve lysis; endogenous in cells
Conditions: UniProt Q8WV16; 100 uM. On the procedure: as §1, §2, §3, §4, §5, §6

Test [4] concerns the target T3, cysteine residue illustrated in Table 1A or Table 2A (Homo sapiens, UniProt Q8N9I9).
T3 construct: Cells were resuspended in cold PBS on ice and sonicated with a probe sonicator to achieve lysis; endogenous in cells
To be noted: UniProt Q8N9I9; 100 uM. The method, then:
as §1, §2, §3, §4, §5, §6

Test [5] deals with T4, cysteine residue illustrated in Table 1A or Table 2A (Homo sapiens, UniProt O75155).
T4 construct: Cells were resuspended in cold PBS on ice and sonicated with a probe sonicator to achieve lysis; endogenous in cells
Conditions: UniProt O75155; 100 uM. The method, then: as §1, §2, §3, §4, §5, §6

The target of test [6] is T5, cysteine residue illustrated in Table 1A or Table 2A (Homo sapiens, UniProt O60826).
T5 construct: Cells were resuspended in cold PBS on ice and sonicated with a probe sonicator to achieve lysis; endogenous in cells
Conditions: UniProt O60826; 100 uM. On the procedure:
as §1, §2, §3, §4, §5, §6

Test [7] deals with T6, cysteine residue illustrated in Table 1A or Table 2A (Homo sapiens, UniProt Q5T6F0).
T6 construct: Cells were resuspended in cold PBS on ice and sonicated with a probe sonicator to achieve lysis; endogenous in cells
Conditions: UniProt Q5T6F0; 100 uM. The method, then: as §1, §2, §3, §4, §5, §6

The target of test [8] is T7, cysteine residue illustrated in Table 1A or Table 2A (Homo sapiens, UniProt O94941).
T7 construct: Cells were resuspended in cold PBS on ice and sonicated with a probe sonicator to achieve lysis; endogenous in cells
To be noted: UniProt O94941. On the procedure:
as §1, §2, §3, §4, §5, §6

For test [9], the target named is T8, cysteine residue illustrated in Table 1A or Table 2A (Homo sapiens, UniProt Q6P1J9).
T8 construct: Cells were resuspended in cold PBS on ice and sonicated with a probe sonicator to achieve lysis; endogenous in cells
Conditions: UniProt Q6P1J9; 100 uM. On the procedure:
as §1, §2, §3, §4, §5, §6

Test [10] has as its target T9, cysteine residue illustrated in Table 1A or Table 2A (Homo sapiens, UniProt Q9P000).
T9 construct: Cells were resuspended in cold PBS on ice and sonicated with a probe sonicator to achieve lysis; endogenous in cells
To be noted: UniProt Q9P000; 100 uM. On the procedure: as §1, §2, §3, §4, §5, §6

For test [11], the target named is T10, cysteine residue illustrated in Table 1A or Table 2A (Homo sapiens, UniProt Q8N3P4).
T10 construct: Cells were resuspended in cold PBS on ice and sonicated with a probe sonicator to achieve lysis; endogenous in cells
Conditions: UniProt Q8N3P4. On the procedure: as §1, §2, §3, §4, §5, §6

Test [12] deals with T11, cysteine residue illustrated in Table 1A or Table 2A (Homo sapiens, UniProt Q96GG9).
T11 construct: Cells were resuspended in cold PBS on ice and sonicated with a probe sonicator to achieve lysis; endogenous in cells
To be noted: UniProt Q96GG9; 100 uM. On the procedure: as §1, §2, §3, §4, §5, §6

Test [13] has as its target T12, cysteine residue illustrated in Table 1A or Table 2A (Homo sapiens, UniProt Q66K64).
T12 construct: Cells were resuspended in cold PBS on ice and sonicated with a probe sonicator to achieve lysis; endogenous in cells
Conditions: UniProt Q66K64; 100 uM. On the procedure:
as §1, §2, §3, §4, §5, §6

In test [14] the target is T13, cysteine residue illustrated in Table 1A or Table 2A (Homo sapiens, UniProt Q8TEB1).
T13 construct: Cells were resuspended in cold PBS on ice and sonicated with a probe sonicator to achieve lysis; endogenous in cells
To be noted: UniProt Q8TEB1; 100 uM. The method, then: as §1, §2, §3, §4, §5, §6

As for `COc1ccc2c(c1)CCCN2C(=O)CCl` [KB02], the “KB02_100 uM_percent_inhibition” value in test [1] (c0 = UniProt of target protein, one grid row per cysteine site) is 24%; in test [1] (target protein = UniProt accession, one row per cysteine site) it was 24%; in test [1] (target protein = UniProt id in c0 of the row (one row per cysteine site)), 24%; in [2], 28%; in [3] it was 16%; in test [4], 8%. In addition, the “KB02_100 uM_percent_inhibition” value in [5] was 24%.

Regarding `C=CC(=O)N(c1ccccc1)c1ccc(Br)cc1` [KB05], the “KB05_100 uM_percent_inhibition” value in test [6] is on record as 22%; in [7], 31%; in test [8] (KB05 100 uM) it was 40%; in [9] it was 33%; in [10], 19%; in [11] (KB05 100 uM), 55%. Moreover, the “KB05_100 uM_percent_inhibition” value in test [3] was 26%; in test [12], 10%; in [13], 11%; in [14], 38%.

For `O=C(CCl)Nc1cc(C(F)(F)F)cc(C(F)(F)F)c1` [KBO3], the “KB03_100 uM_percent_inhibition” value in test [1] (target protein = UniProt accession, one row per cysteine site, UniProt Q9P0J7) worked out at 90%; in test [1] (target protein = UniProt accession, one row per cysteine site, UniProt Q08380) it was 69%; in [6], 7%; in [7], 11%; in test [8] (KB03 100 uM), 63%; in test [2], 8%. In addition, the “KB03_100 uM_percent_inhibition” value in test [9] is 24%; in test [10], 30%; in test [11] (KB03 100 uM) it was 44%; in test [12] it was 26%; in test [13], 31%; in [14], 43%. In addition, the “KB03_100 uM_percent_inhibition” value is on record as 10% in test [4] and 31% in test [5].
